The nature of experiment [1]: Number of mice died/no of mice treated with 5 mg/kg of compound in aqueous solution intraperitoneally with L1210 leukemia; 0/10. In kind it is functional. Conditions: route intraperitoneal.
Experiment [2] deals with Mus musculus. Nature of the experiment: Anti tumor activity l when treated to mice with L1210 leukemia with 0.625 mg/kg dose of compound intraperitoneally was expressed as percent of treated to control (T/C %). The format is functional. The note with it: route intraperitoneal.
Experiment [3] in a line: Mortality range of the mice with L1210 leukemia treated with 5 mg/kg of dose intraperitoneally with no of mice survived/no of mice treated; 0/8. The format is functional. Conditions: route intraperitoneal.
Experiment [4] concerns Mus musculus. The experiment is described as follows: Median survival time of the non surviving mice; treated with 5 mg/kg of compound to mice with L1210 leukemia; 43-54. The format is functional.
Experiment [5] concerns Mus musculus. Nature of the experiment: Mortality range of the mice with L1210 leukemia treated with 2.5 mg/kg of dose intraperitoneally with no of mice survived/no of mice treated; 0/8. Conditions: route intraperitoneal. In kind it is functional.
Experiment [6] deals with Mus musculus. Nature of the experiment: Median survival time of the non surviving mice; treated with 0.625 mg/kg of compound to mice with L1210 leukemia; 10-11. The format is functional.
Experiment [7] is described as follows: Mortality range of the mice with L1210 leukemia treated with 0.625 mg/kg of dose intra peritoneally with no of mice survived/no of mice treated; 0/8. In kind it is functional.
Experiment [8] concerns Mus musculus. The experiment is described as follows: The number of L1210 leukemia mice survived after 30 days with compound in aqueous solution injected by a dose of 10 mg/kg intraperitoneally; 0/10. In kind it is functional. Conditions: route intraperitoneal.
Experiment [9] deals with Mus musculus. Nature of the experiment: The number of L1210 leukemia mice survived after 30 days with compound injected by a dose of 0.625 mg/kg intraperitoneally; 0/8. The note with it: route intraperitoneal. The format is functional.
For experiment [10], the system named is Mus musculus. The experiment is described as follows: The number of L1210 leukemia mice survived after 60 days with compound injected by a dose of 5 mg/kg intraperitoneally; 4/8. In kind it is functional. The note with it: route intraperitoneal.
The test system of experiment [11] is Mus musculus. Nature of the experiment: The number of L1210 leukemia mice survived after 30 days with compound injected by a dose of 5 mg/kg intraperitoneally; 8/8. In kind it is functional. The note with it: route intraperitoneal.
Experiment [12] concerns Mus musculus. Nature of the experiment: Median survival time of the non surviving mice; treated with 10 mg/kg of compound in olive oil to mice with L1210 leukemia; 15-25. In kind it is functional.
Experiment [13] relates to Mus musculus. The experiment is described as follows: Median survival time of the non surviving mice; treated with 5 mg/kg of compound in olive oil to mice with L1210 leukemia; 23-49. In kind it is functional.
Experiment [14] in a line: Mortality range of the mice with L1210 leukemia treated with 1.25 mg/kg of dose intraperitoneally with no of mice survived/no of mice treated; 0/8. The format is functional. The note with it: route intraperitoneal.
Experiment [15] concerns Mus musculus. The experiment is described as follows: The number of L1210 leukemia mice survived after 60 days with compound in aqueous solution injected by a dose of 10 mg/kg intraperitoneally; 0/10. The format is functional. The note with it: route intraperitoneal.
Experiment [16] relates to Mus musculus. Nature of the experiment: Anti tumor activity in olive oil when treated to mice with L1210 leukemia with 5 mg/kg dose of compound intraperitoneally was expressed as percent of treated to control (T/C %). The format is functional. Conditions: route intraperitoneal.
In experiment [17] the test system is Mus musculus. Nature of the experiment: The number of L1210 leukemia mice survived after 30 days with compound in aqueous solution injected by a dose of 5 mg/kg intraperitoneally; 7/10. The format is functional. Conditions: route intraperitoneal.
Experiment [18] relates to Mus musculus. Nature of the experiment: Anti tumor activity l when treated to mice with L1210 leukemia with 1.25 mg/kg dose of compound intraperitoneally was expressed as percent of treated to control (T/C %). The format is functional. Conditions: route intraperitoneal.
Experiment [19] concerns Mus musculus. The experiment is described as follows: The number of L1210 leukemia mice survived after 30 days with compound injected by a dose of 1.25 mg/kg intraperitoneally; 0/8. The note with it: route intraperitoneal. In kind it is functional.
A short description of experiment [20]: Number of mice died/no of mice treated with 10 mg/kg of compound in aqueous solution intraperitoneally with L1210 leukemia; 1/10. In kind it is functional. The note with it: route intraperitoneal.
For experiment [21], the system named is Mus musculus. Nature of the experiment: Anti tumor activity l when treated to mice with L1210 leukemia with 2.5 mg/kg dose of compound intraperitoneally was expressed as percent of treated to control (T/C %). The format is functional. Conditions: route intraperitoneal.
Experiment [22] relates to Mus musculus. Nature of the experiment: The number of L1210 leukemia mice survived after 60 days with compound in aqueous solution injected by a dose of 5 mg/kg intraperitoneally; 4/10. In kind it is functional. The note with it: route intraperitoneal.
Experiment [23] relates to Mus musculus. The experiment is described as follows: Median survival time of the non surviving mice; treated with 2.5 mg/kg of compound to mice with L1210 leukemia; 17-25. The format is functional.
Experiment [24] concerns Mus musculus. The experiment is described as follows: Anti tumor activity l when treated to mice with L1210 leukemia with 5 mg/kg dose of compound intraperitoneally was expressed as percent of treated to control (T/C %). In kind it is functional. Conditions: route intraperitoneal.
The subject of experiment [25] is Mus musculus. The experiment is described as follows: The number of L1210 leukemia mice survived after 30 days with compound injected by a dose of 2.5 mg/kg intraperitoneally; 0/8. The format is functional. The note with it: route intraperitoneal.
In experiment [26] the test system is Mus musculus. Nature of the experiment: Median survival time of the non surviving mice; treated with 1.25 mg/kg of compound to mice with L1210 leukemia; 11-15. In kind it is functional.
Experiment [27] has as its system Mus musculus. Nature of the experiment: Anti tumor activity in olive oil when treated to mice with L1210 leukemia with 10 mg/kg dose of compound intraperitoneally was expressed as percent of treated to control (T/C %). Conditions: route intraperitoneal. The format is functional.
Experiment [28] relates to Mus musculus. Nature of the experiment: The number of B16 melanocarcinoma mice survived after 60 days with compound in olive oil injected by a dose of 20 mg/kg intraperitoneally; 2/20. In kind it is functional. Conditions: route intraperitoneal.
The subject of experiment [29] is Mus musculus. Nature of the experiment: The number of Lewis lung mice survived after 60 days with compound in olive oil injected by a dose of 20 mg/kg intraperitoneally; 15/20. In kind it is functional. Conditions: route intraperitoneal.
Experiment [30] concerns Mus musculus. The experiment is described as follows: The number of B16 melanocarcinoma mice survived after 30 days with compound in olive oil injected by a dose of 20 mg/kg intraperitoneally; 13/20. In kind it is functional. Conditions: route intraperitoneal.
The subject of experiment [31] is Mus musculus. The experiment is described as follows: The number of L1210 Leukemia mice survived after 60 days with compound in olive oil injected by a dose of 20 mg/kg intraperitoneally; 10/15. The note with it: route intraperitoneal. In kind it is functional.
For experiment [32], the system named is Mus musculus. The experiment is described as follows: Ratio of mice died to that of mice treated with 20 mg/kg of compound in olive oil intraperitoneally with Lewis lung; 0/20. The format is functional. Conditions: route intraperitoneal.
The subject of experiment [33] is Mus musculus. Nature of the experiment: Median survival time of the non surviving mice; treated with 20 mg/kg of compound in olive oil to mice with B16 Melanocarcinoma; 14-55. The format is functional.
Experiment [34] concerns Mus musculus. The experiment is described as follows: Anti tumor activity in olive oil when treated to mice with B16 melanocarcinoma with 20 mg/kg dose of compound intraperitoneally was expressed as percent of treated to control (T/C %). The format is functional. The note with it: route intraperitoneal.
The test system of experiment [35] is Mus musculus. The experiment is described as follows: Ratio of mice died to that of mice treated with 20 mg/kg of compound in olive oil intraperitoneally with L1210 leukemia tumor; 0/15. In kind it is functional. Conditions: route intraperitoneal.
The subject of experiment [36] is Mus musculus. The experiment is described as follows: Ratio of mice died to that of mice treated with 20 mg/kg of compound in olive oil intraperitoneally with B16 Melanocarcinoma; 0/20. The format is functional. Conditions: route intraperitoneal.
For experiment [37], the species on record is Mus musculus. The experiment is described as follows: Median survival time of the non surviving mice; there are two deaths on day 27, one death on day 29, and two deaths on day 41. In kind it is functional, organism-based.
The test system of experiment [38] is Mus musculus. The experiment is described as follows: The number of L1210 Leukemia mice survived after 30 days with compound in olive oil injected by a dose of 20 mg/kg intraperitoneally; 12/15. In kind it is functional. The note with it: route intraperitoneal.
The test system of experiment [39] is Mus musculus. The experiment is described as follows: The number of Lewis lung mice survived after 30 days with compound in olive oil injected by a dose of 20 mg/kg intraperitoneally; 18/20. In kind it is functional. The note with it: route intraperitoneal.

The source of these data is ChEMBL document CHEMBL1124317, “Rationale for the synthesis and preliminary biological evaluation of highly active new antitumor nitrosoureido sugars” (J Med Chem, 1989).

Structures are written as SMILES.

For `CO[C@H]1C[C@@H](NC(=O)N(CCCl)N=O)[C@H](O)[C@@H](C)O1`, the Ratio in [1] worked out at 0; in experiment [3], 0; in experiment [7], 0; in experiment [14], 0; in experiment [20] it was 1. Also, the T/C worked out at 118% in experiment [2]; 519% in experiment [16]; 144% in experiment [18]; 244% in experiment [21]; 539% in experiment [24]; 198% in experiment [27]. Also, the Median survival time came to 48.5 in [4]; 10.6 in [6]; 18.75 in experiment [12]; 49 in experiment [13]; 21.9 in experiment [23]; 12.9 in experiment [26]. For the same compound, the Mortality ratio in experiment [5] is on record as 0. Besides, the Survivals was determined as 0 in experiment [8]; 0 in [9]; 4 in experiment [10]; 8 in experiment [11]; 0 in [15]; 7 in experiment [17]. Further, the Survivals was 0 in [19], 4 in [22] and 0 in [25].

As to `COC1CC(NC(=O)N(CCCl)N=O)C(O)C(CNC(=O)N(CCCl)N=O)O1` (centres undefined), the Survivals in experiment [28] worked out at 2; in [29] it was 15; in experiment [30], 13; in experiment [31], 10; in experiment [38], 12; in [39], 18. In addition, the Ratio in [32], in experiment [35] and in [36] was 0 in each case. The Median survival time in [33] was 31.37; in [37] it was “there are two deaths on day 27, one death on day 29, and two deaths on day 41”. Further, in experiment [34], the T/C is reported as 225%.

As a reminder, the T/C is the result in the treated group divided by that in the control group, in per cent.
